Experimental findings from patent US9826732B2, “Composition for cryopreservation of cells and tissues” (Bio Verde Inc., priority 2008, dated 2017) are described below.

Common to all, as to format: cell-based
Data set [1] concerns CD34-expressing hematopoietic cells. As to the kind of experiment: Cryopreservation of umbilical cord blood, CD34 flow cytometry. Particulars: human cord blood; −80° C. for three months. Here is the method:
Umbilical cord blood was collected from human umbilical cord by a 7 mL plastic vacuum blood sampling tube (Venoject II, Terumo Corporation) loaded with 10.5 mg anticoagulant (EDTA2Na). […] Then the cord blood was quickly thawed in a water bath at 37° C., and a sample of cord blood without dilution was analyzed with respect to the expression of the surface marker, CD34, by flow cytometry. The number of hematopoietic cells expressing CD34 was measured according to the standard method described in the literature (A. Higuchi et al., J. Biomed. Mater. Res., 68A, the fixed method of 34-42 (2004)). Thus the number of CD34-expressing hematopoietic cells was estimated according to the protocol in the manual (International Hemotherapeutics and Transplantation Society ISHAGE guideline) using Stem-Kit (Beckman-Coulter Corporation). Even after the three months of cryopreservation, number of counted cells of the CD34-expressing hematopoietic cells was estimated to be about 70% of that on the first day when the cord blood was added with the PLL succinic anhydride 63% was added by 7.5%; whereas, when the cord blood in a state of 10% DMSO solution was cryopreserved, number of the CD34-expressing hematopoietic cells was estimated to be about 20% of that on the first day.

Data set [2] has as its system L929 cells. As to the kind of experiment: Toxicity test, MTT assay, 50% cell growth inhibition. The conditions noted are these: 48 hours culture with polymer.
Protocol: Toxicity test was performed on L929 cells. The cells having been suspended in a culture medium of DMEM with 10% fetal bovine serum are seeded in 96-well plates (1.0×10^3 cells/well) and cultured at 37° C. for 72 hours. Thereafter, each of ε-poly-L-lysine and the modified poly-lysines having been added with varying concentrations of succinic anhydride was added to the culture media to attain final concentrations of 0-10%.
Data set [3] relates to Rat mesenchymal stem cells (RMSC). Nature of the data set: Cryopreservation of rat mesenchymal stem cells, survival after thawing.
The test system of data set [4] is L929 cells. Nature of the data set: Thawed L929 cells seeded directly without dilution or washing, cultured 24 hours. Particulars: thawed liquid seeded directly, no dilution nor washing, FIG. 3-1, 3-2. On the procedure:
Meanwhile, the cryopreservation liquid containing the L929 cells was frozen, thawed and directly seeded in 12-well plates and cultured at 37° C. for 24 hours. In detail, the cells were cryopreserved in the 7.5% solution of the PLL succinic anhydride 63% and thawed as in EXAMPLE 2, except that no dilution nor washing was made for the liquid or the cells, and the liquid containing the cells was directly transferred to the plates for culturing.

As for `C[S+](C)[O-]` [DMSO, dimethylsulfoxide], the “number of CD34-expressing hematopoietic cells relative to that on the first day” value in data set [1] is “about 20%”. Further, the “IC50 (50% Cell-growth-inhibition Concentration)” value in the data set with L929 cells [2] is 2.035 ± 0.017%. Further, the “survival rate, 6 hours later” value in data set [3] (6 hours after thawing) is 88.3 ± 1.1. Besides, the “survival rate, 24 hours later” value in data set [3] (24 hours after thawing) is 92.8 ± 3.5. Besides, the “survival rate, Immediately” value in data set [3] (immediately after thawing) worked out at 92.3 ± 4.3. For the same compound, the “observation of cells after 24 hours culture” value with L929 cells [4] is “apparently round in shape and dead”.
